Values of other authors as cited in patent US20140356424A1, “COMPOSITION FOR TREATMENT OR REDUCTION OF SYMPTOMS RELATED TO PREMENSTRUAL SYNDROME (PMS), PREMENSTRUAL DISPHORIC DISORDER (PMDD), PREMENOPAUSE, MENOPAUSE OR FEMALE HORMONAL DISORDERS, IN A PHARMACEUTICAL COMPOSITION CONTAINING SAID FORM, AND PROCESS FOR PRODUCING SAID PHARMACEUTICAL FORM AND USE …” (EMS S.A., priority 2013, published 2014).

How the values were obtained:
[1] = tested on: women with a diagnosis of PMS; settings: calcium carbonate 1.0 g/day, after three months
[2] = tested on: premenstrual symptoms; settings: daily supplement of 200 mg of magnesium (as MgO)

Row | SMILES | complaints of headache, anxiety, agitation and irritability [1] | symptom of fatigue (questionnaire) ([1]; placebo 52.3%) [%] | symptom of changes in appetite (questionnaire) ([1]; placebo 75%) [%] | effect on severity of premenstrual symptoms [2]
1 | O=C([O-])[O-].[Ca+2] [calcium carbonate] | significant changes were not observed | 36 | 52.7 | 
2 | [O]=[Mg] [magnesium (as MgO), magnesium oxide] |  |  |  | reduced mild premenstrual symptoms
